Experimental data taken from US4063025A, “4-Substituted amino-α-aminomethylbenzyl alcohol derivatives” (Yamanouchi Pharmaceutical Co., Ltd., priority 1975, dated 1977).
Structures can show the parent of a compound that is named as a salt. Where two headings read alike, the source gives them in different places.

Legend:
[1] = test system: guinea pig; test: Anti asthmatic activity: protection from histamine-induced asthmatic dyspnea, subcutaneous (Parker et al.); assay type: in vivo; conditions: Cavia porcellus, sc, 0.5 h, read-out: anti-asthmatic activity ED50
Protocol: The experiments were carried out according to the method of Parker et al., (J. Pharmacol. Exptl. Therap., 118, 359-364 (1956)). A guinea pig was placed in a 11 liters glass chamber and exposed to the spasmogen by means of a nebulizer. […] Samples were administered subcutaneously to animals 30 min. prior the application of the spasmogen.
ED50 was calculated by the method of Litchfield-Wilcoxon (J. Pharmacol. Exptl. Therap., 96, 99-113 (1949) using 4-8 groups and one group consists of 4-8 of guinea pig.

[2] = test system: β1 /β2; test: Broncho-selectivity (ratio of β1/β2); assay type: in vivo, Mongorel dogs; conditions: intraduodenal, anesthetized dogs; from ED25 heart rate and ED50 bronchodilator
Text: The broncho-selectivity was obtained by the following equation. [formula]

[3] = molecular target: T1, β2 (Canis lupus familiaris, UniProt P54833); test: Bronchodilator activity, β2 action: histamine-induced increase in bronchial resistance, intraduodenal (Konzett and Rossler); assay type: in vivo, Mongorel dogs; conditions: dog, anesthetized dogs, histamine dihydrochloride 10 μg/Kg i.v., peak effect, read-out: β2 action i.d. ED50
T1 construct: from tissue; host or cells: airways of anesthetized mongrel dogs, in vivo
Protocol: a. Bronchodilator activity, B2 action
The experiments were carried out according to the method of Konzett and Rossler (Arch. exp. Path. Pharmakol., 195, 11-14 (1940)). Mongorel dogs were anesthetized with pentobarbital Na. Temporary increase in bronchial resistance, measured with transducer connected to a polygraph, were produced by histamine dihydrochloride, 10 μg/Kg injected rapidly intravenously at intervals of 30 min. The test samples were injected intraduodenally and the time-course of antihistamine activity of the sample (the inhibition rate (%) against the control) was obtained.
ED50 (μg/Kg) values of β-agonists were obtained from the dose response curve drawn according to the peak effect on each dose.

[4] = test system: β1; test: Action on heart rate, β1 action, intraduodenal; assay type: in vivo, Mongorel dogs
Protocol: b. Action on heartrate, β1 action.
Mongorel dogs were anesthetized with pentobarbital Na. Heart rate (HR) was recorded on polygraph. […] The time-course of ΔHR (the increased HR against the control) was obtained.
The dose response curve drawn according to the peak response on each dose and the ED25 beats/min. (μg/Kg), that is the dose of the sample producing 25 beats/min. increase in heart rate was obtained from the curve.

[5] = cited from earlier work
[6] = subcutaneous, 30 min. prior to spasmogen (0.1% histamine dihydrochloride spray), guinea pig

T1 sequence (P54833 whole entry): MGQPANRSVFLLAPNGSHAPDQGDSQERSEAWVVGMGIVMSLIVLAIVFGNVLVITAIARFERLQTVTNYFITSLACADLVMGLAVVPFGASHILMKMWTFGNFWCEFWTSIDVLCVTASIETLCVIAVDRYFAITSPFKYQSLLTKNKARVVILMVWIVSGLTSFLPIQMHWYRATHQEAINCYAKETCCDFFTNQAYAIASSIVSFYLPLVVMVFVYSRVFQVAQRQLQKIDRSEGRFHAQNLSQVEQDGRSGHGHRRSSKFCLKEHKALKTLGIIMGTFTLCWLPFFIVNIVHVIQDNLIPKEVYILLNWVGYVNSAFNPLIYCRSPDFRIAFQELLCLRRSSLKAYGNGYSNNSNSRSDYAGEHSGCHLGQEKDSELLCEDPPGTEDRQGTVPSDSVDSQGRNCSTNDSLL

CCNc1c(Cl)cc(C(O)CNC(C)(C)C)cc1Cl.Cl (stereo not drawn) [Ex. 6, 3,5-dichloro-4-ethylamino-α-(tert-butylaminomethyl)-benzyl alcohol mono-hydrochloride]
ED50 [1]: 0.125 to 0.25 mg/kg

COC(=O)Nc1c(Br)cc(C(O)CNC(C)(C)C)cc1Br (stereo not drawn) [Ex. 8, 3,5-dibromo-4-methoxycarbonylamino-α-(tert-butylaminomethyl)benzyl alcohol]
ED50 [1, 6]: 0.125 mg/kg

CCOC(=O)Nc1c(Cl)cc(C(O)CNC(C)(C)C)cc1Cl.Cl (stereo not drawn) [Ex. 10, 3,5-dichloro-4-ethoxycarbonylamino-α-(tert-butylaminomethyl)-benzyl alcohol hydrochloride]
broncho-selectivity (Ratio of β1 /β2) [2]: 4.3 | ED50 [3]: 0.0045 mg/kg | β1 action i.d. ED25 beats/min ([4]; dog, in vivo): 0.0195 mg/kg

CC(C)OC(=O)Nc1c(Cl)cc(C(O)CNC(C)(C)C)cc1Cl (stereo not drawn) [Ex. 12, 3,5-dichloro-4-isopropoxycarbonylamino-α-(tert-butylaminomethyl)benzyl alcohol]
ED50 [1, 6]: 0.032 mg/kg

CC(C)(C)NCC(O)c1cc(Cl)c(NC(=O)OCc2ccccc2)c(Cl)c1.Cl (stereo not drawn) [Ex. 13, 3,5-dichloro-4-benzyloxycarbonylamino-α-(tert-butylaminomethyl)benzyl alcohol hydrochloride]
ED50 [1, 6]: 0.125 mg/kg

COCCOC(=O)Nc1c(Cl)cc(C(O)CNC(C)(C)C)cc1Cl (stereo not drawn) [Ex. 14, 3,5-dichloro-4-(2-methoxyethoxy)carbonylamino-α-(tert-butylaminomethyl)benzyl alcohol hydrochloride]
ED50 [1, 6]: 0.032 mg/kg

CNC(=O)Nc1c(Cl)cc(C(O)CNC(C)(C)C)cc1Cl (stereo not drawn) [Ex. 15, 3,5-dichloro-4-methylcarbamoylamino-α-(tert-butylaminomethyl)benzyl alcohol]
ED50 [1, 6]: 0.125 to 0.25 mg/kg

COC(=O)Nc1c(Cl)cc(C(O)CNC(C)(C)C)cc1Br (stereo not drawn) [Ex. 18, 3-bromo-5-chloro-4-methoxycarbonylamino-α-(tert-butylaminomethyl)-benzyl alcohol 1/2 fumarate]
ED50 [1, 6]: 0.063 mg/kg

COC(=O)Nc1ccc(C(O)CNC(C)(C)C)cc1Cl (stereo not drawn) [Ex. 23, 3-chloro-4-methoxycarbonylamino-α-(N-tert-butylaminomethyl)benzyl alcohol]
ED50 [1, 6]: 0.063 to 0.125 mg/kg

CC(C)(C)NCC(O)c1cc(Cl)c(N)c(Cl)c1 (stereo not drawn) [NAB 365, 1-(4-amino-3,5-dichlorophenyl)-2-tert-butylamino ethanol, reference compound]
ED50 [1]: 0.49 mg/kg | broncho-selectivity (Ratio of β1 /β2) [2]: 0.46 | ED50 [3]: 0.0123 mg/kg | bronchodilator activity by oral administration ([5]; in words): strong bronchodilator activity | bronchodilator activity, times stronger than Isoproterenol ([5]; oral administration, versus Isoproterenol): about 500 times | bronchodilator activity, times stronger than Salbutamol ([5]; oral administration, versus Salbutamol): about 100 times | β1 action i.d. ED25 beats/min ([4]; intraduodenal, anesthetized dogs, dose producing 25 beats/min. increase in heart rate): 0.0057 mg/kg
